Test results taken from patent US12692268B2 (priority 2020, dated 2026).
Where two headings read alike, the source gives them in different places. Values belong to the compound of their own block, whether it stands above or below them.

Legend:
JNK3 [1] = molecular target: T1, JNK3 (Homo sapiens, UniProt P53779); assay: biochemical
JNK3 [2] = molecular target: T1, JNK3; assay: Kinase panel screening, single dose 10 μM; assay type: biochemical; conditions: single dose concentration of 10 μM; read-out: inhibitory activity for JNK3
GSK-β = GSK-β (Homo sapiens, UniProt P49841); assay: Kinase panel screening, single dose 10 μM; assay type: biochemical; conditions: single dose concentration of 10 μM; read-out: inhibitory activity for GSK-β
RIPK3 = RIPK3 (Homo sapiens, UniProt Q9Y572); assay: Kinase panel screening, single dose 10 μM; assay type: biochemical; conditions: single dose concentration of 10 μM; read-out: inhibitory activity for RIPK3
JNK2 = JNK2 (Homo sapiens, UniProt P45984); assay: Kinase panel screening, single dose 10 μM; assay type: biochemical; conditions: single dose concentration of 10 μM; read-out: inhibitory activity for JNK2
Sequence of JNK2 (P45984 whole entry, species assumed): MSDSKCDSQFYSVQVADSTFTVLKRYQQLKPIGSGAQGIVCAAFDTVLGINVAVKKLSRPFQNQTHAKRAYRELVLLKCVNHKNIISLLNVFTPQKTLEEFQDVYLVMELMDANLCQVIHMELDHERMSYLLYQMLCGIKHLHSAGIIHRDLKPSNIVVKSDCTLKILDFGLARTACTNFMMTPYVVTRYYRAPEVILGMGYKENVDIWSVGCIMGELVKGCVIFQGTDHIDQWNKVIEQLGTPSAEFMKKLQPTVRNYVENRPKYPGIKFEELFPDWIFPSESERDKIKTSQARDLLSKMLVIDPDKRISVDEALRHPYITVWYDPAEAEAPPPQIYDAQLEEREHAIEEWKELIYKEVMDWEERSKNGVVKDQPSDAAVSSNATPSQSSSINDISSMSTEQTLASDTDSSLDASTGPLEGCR

T1 sequence (P53779 whole entry): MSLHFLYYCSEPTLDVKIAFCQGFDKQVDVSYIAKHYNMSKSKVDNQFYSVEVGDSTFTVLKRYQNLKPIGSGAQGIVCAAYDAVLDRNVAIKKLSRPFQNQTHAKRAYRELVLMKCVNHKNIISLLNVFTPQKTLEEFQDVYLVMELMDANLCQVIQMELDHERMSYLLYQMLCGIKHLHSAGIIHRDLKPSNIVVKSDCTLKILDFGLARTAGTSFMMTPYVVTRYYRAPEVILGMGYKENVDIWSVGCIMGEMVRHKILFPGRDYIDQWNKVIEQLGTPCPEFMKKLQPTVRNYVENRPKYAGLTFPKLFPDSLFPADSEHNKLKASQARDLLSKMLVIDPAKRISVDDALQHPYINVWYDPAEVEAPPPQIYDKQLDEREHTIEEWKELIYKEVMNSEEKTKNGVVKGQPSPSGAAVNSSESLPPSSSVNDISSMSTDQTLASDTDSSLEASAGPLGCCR
Sequence of RIPK3 (Q9Y572 whole entry, species assumed): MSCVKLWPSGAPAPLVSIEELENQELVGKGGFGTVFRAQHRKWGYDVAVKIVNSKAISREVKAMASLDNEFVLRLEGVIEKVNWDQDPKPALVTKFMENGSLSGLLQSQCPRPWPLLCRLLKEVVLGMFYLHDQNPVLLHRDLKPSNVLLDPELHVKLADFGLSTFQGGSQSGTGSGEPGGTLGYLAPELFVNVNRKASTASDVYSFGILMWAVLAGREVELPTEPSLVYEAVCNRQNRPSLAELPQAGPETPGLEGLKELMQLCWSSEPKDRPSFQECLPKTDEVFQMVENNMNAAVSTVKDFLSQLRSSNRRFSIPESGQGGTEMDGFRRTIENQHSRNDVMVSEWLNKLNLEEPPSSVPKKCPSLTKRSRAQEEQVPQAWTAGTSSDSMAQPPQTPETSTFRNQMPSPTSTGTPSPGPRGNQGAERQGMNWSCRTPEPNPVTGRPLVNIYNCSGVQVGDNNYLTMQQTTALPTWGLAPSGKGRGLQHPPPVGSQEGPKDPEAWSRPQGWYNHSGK
Sequence of GSK-β (P49841 whole entry): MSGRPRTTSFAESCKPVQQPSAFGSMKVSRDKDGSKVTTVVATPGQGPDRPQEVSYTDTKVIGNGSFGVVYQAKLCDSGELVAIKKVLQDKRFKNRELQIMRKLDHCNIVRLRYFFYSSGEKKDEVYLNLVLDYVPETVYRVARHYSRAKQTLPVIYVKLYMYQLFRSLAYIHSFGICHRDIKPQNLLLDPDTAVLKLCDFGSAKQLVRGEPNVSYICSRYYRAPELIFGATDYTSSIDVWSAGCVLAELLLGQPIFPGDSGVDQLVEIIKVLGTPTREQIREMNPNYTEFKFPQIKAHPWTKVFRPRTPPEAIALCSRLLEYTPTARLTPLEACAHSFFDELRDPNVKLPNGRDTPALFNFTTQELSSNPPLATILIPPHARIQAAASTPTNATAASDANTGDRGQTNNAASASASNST

Compound: O=C(C1CC1)N1CCC[C@H](Nc2nccc(-n3c(-c4ccc(Cl)c(Cl)c4)nc4c3CN(C(=O)N3CCC(O)CC3)C4)n2)C1 [Compound 16a, (S)-(1-(2-((1-(cyclopropanecarbonyl)piperidin-3-yl)amino)pyrimidin-4-yl)-2-(3,4-dichlorophenyl)-4,6-dihydropyrrolo[3,4-d]imidazol-5(1H)-yl)(4-hydroxypiperidin-1-yl)methanone]
IC50 (JNK3 [1]): < 30 nM

IC50 (JNK3 [1]; JNK3 enzyme activity, Table 2, read-out: IC50): 100 to 10000 nM
Compound: NC(=O)N1Cc2nc(-c3ccc4c(c3)OCO4)n(-c3ccnc(N[C@H]4CCCN(C(=O)C5CCC5)C4)n3)c2C1 [Compound 16m, (S)-2-(benzo[d][1,3]dioxol-5-yl)-1-(2-((1-(cyclobutanecarbonyl)piperidin-3-yl)amino)pyrimidin-4-yl)-4,6-dihydropyrrolo[3,4-d]imidazole-5(1H)-carboxamide]

IC50 (JNK3 [1]; JNK3 enzyme activity, Table 1, read-out: IC50): < 30 nM
Compound: NC(=O)N1Cc2nc(-c3ccc(Cl)c(Cl)c3)n(-c3ccnc(N[C@H]4CCCN(C(=O)C5CC5)C4)n3)c2C1 [Compound 16b, (S)-1-(2-((1-(cyclopropanecarbonyl)piperidin-3-yl)amino)pyrimidin-4-yl)-2-(3,4-dichlorophenyl)-4,6-dihydropyrrolo[3,4-d]imidazole-5(1H)-carboxamide]

inhibition at 10 µM (JNK3 [2]): 100% | inhibition at 10 µM (GSK-β): 70% | inhibition at 10 µM (RIPK3): 50% | inhibition at 10 µM (JNK2): 100%
Compound: NC(=O)N1Cc2nc(-c3ccc(Cl)c(Cl)c3)n(-c3ccnc(N[C@@H]4CCN(C(=O)C5CC5)C4)n3)c2C1 [Compound 16c, (R)-1-(2-((1-(cyclopropanecarbonyl)pyrrolidin-3-yl)amino)pyrimidin-4-yl)-2-(3,4-dichlorophenyl)-4,6-dihydropyrrolo[3,4-d]imidazole-5(1H)-carboxamide]
